Measurements: patent US20150182431A1, “Compositions and Methods for Treatment of Hair with Reduced Hair Damage” (SYTHEON LTD, priority 2013, published 2015)

Details: for Fluorescence decay of fluorescein (FL), in words: 200 μM each, CuCl2 230 μM, CaCl2 2.3 mM
Description: The study was conducted in accordance with the methodology disclosed in “Novel Fluorometric Assay for Hydroxyl Radical Prevention Capacity Using Fluorescein as the Probe”, B Ou, M Hampsch-Woodill, J Flanagan, EK Deemer, R Prior, D Huang, J. Agric, Food Chem: 50(10); 2772-2777, 2002.
The Fenton reaction was initiated with the mixture of Cu^2+, CaCl2 and hydrogen peroxide at alkaline condition. Hydroxyl radicals were generated by the Fenton reagent mixture, oxidative damage was monitored by fluorescein (FL), a fluorescence probe sensitive to hydroxyl radicals. The loss of fluorescence intensity was an index of oxidation. Thus, the slower the fluorescence decay, the stronger the chelation for Cu^2+.

Row | Structure (SMILES) | Fluorescence decay of fluorescein (FL), in words | Chelating ability for copper, in words | Chelation of Cu^2+ preventing the Fenton reaction, in words (equimolar amounts (230 μM) of compound and Cu^2+) | Attraction for calcium, in words (excess Ca^2+)
1 | O=C(O)CN(CCN(CC(=O)O)CC(=O)O)CC(=O)O [EDTA, Ethylenediamine tetraacetic acid, reference compound] | barely noted | – | – | –
2 | O=C(O)CC(NCCNC(CC(=O)O)C(=O)O)C(=O)O (stereo not shown) [EDDS, Ethylenediamine-N,N′-disuccinic acid, reference compound] | barely noted | not an effective chelating agent for copper | – | –
3 | COc1cc(C=C(C(C)=O)C(C)=O)cc(OC)c1OC [Compd. 1E, 3-(3,4,5-trimethoxybenzylidene) 2,4-pentanedione] | barely noted | excellent chelating ability for copper | almost completely chelated | little attraction for calcium
